These results are taken from PubChem BioAssay (NCI).

Molecules are shown by their SMILES.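 Grown in 96-well plates, cells were treated for 48 hours with each compound at five concentrations. Insufficient inhibition: endpoint recorded as highest concentration tested. GI50 is the concentration that inhibits growth by half. TGI: concentration producing complete growth inhibition.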

Among the test systems are NCI-H522 lung; TK-10 renal; RPMI-8226 leukemia; 786-0 renal; UO-31 renal; SK-MEL-5 melanoma; HT29 colon; PC-3 prostate; MDA-MB-231 breast; DU-145 prostate.
Test in all cases: NCI-60 cell line screen, 48 h

With `c1ccc2c(c1)CCc1cc3cc4c(nc3nc1-2)-c1ccccc1CC4`, the TGI in the assay on NCI-H522 lung, in the assay with TK-10 renal, in the assay with RPMI-8226 leukemia, in the assay with 786-0 renal and in the assay with UO-31 renal was more than 100 µM throughout.

`CCSC1=C(C)N(C=NC(C)(C)C)CC1`: the TGI in the assay on NCI-H522 lung, in the assay on SK-MEL-5 melanoma, in the assay on TK-10 renal, with HT29 colon, with 786-0 renal and in the assay on UO-31 renal was more than 100 µM throughout.

Turning to `O=C1NC2(CCCCC2)C2CCCCCC12` (stereo not drawn), the TGI in the assay with TK-10 renal, with HT29 colon and in the assay with UO-31 renal was more than 100 µM in each case.

`CC(C)c1ccc(/C=C2\CSCC3=C2NC(=S)NC3c2ccc(C(C)C)cc2)cc1` (stereo not drawn): the TGI with PC-3 prostate was more than 100 µM; in the assay on NCI-H522 lung, more than 100 µM; in the assay with SK-MEL-5 melanoma, 99.5 µM; with TK-10 renal it was more than 100 µM; with HT29 colon it was more than 100 µM; in the assay with MDA-MB-231 breast, more than 100 µM. For the same compound, the TGI in the assay with DU-145 prostate, in the assay with RPMI-8226 leukemia, with 786-0 renal and in the assay with UO-31 renal was more than 100 µM throughout.

`Oc1[nH]c2ccccc2c1N=Nc1nc(-c2ccc(Cl)c(Cl)c2)cs1`: the TGI in the assay with PC-3 prostate, in the assay on SK-MEL-5 melanoma, in the assay on TK-10 renal, in the assay on HT29 colon, with MDA-MB-231 breast and with DU-145 prostate was more than 100 µM throughout. For the same compound, the TGI in the assay on 786-0 renal and in the assay with UO-31 renal was more than 100 µM each time.

On to `COc1cccc(/C=N/[N-]C(N)=O)c1[O-].[Ni+2].[OH3+].c1cnc2c(c1)ccc1cccnc12`, for which the TGI in the assay on SK-MEL-5 melanoma, in the assay with TK-10 renal, with HT29 colon, in the assay on RPMI-8226 leukemia, in the assay with 786-0 renal and in the assay with UO-31 renal was more than 100 µM in each case.

With `CCCCOP1(=O)C=C(C)C(=C(Cl)Cl)C(C)=C1` (stereo not drawn), the TGI in the assay with NCI-H522 lung is 11 µM; in the assay on SK-MEL-5 melanoma it was more than 32.9 µM; in the assay on TK-10 renal it was 44.1 µM; in the assay with HT29 colon, 29.9 µM; in the assay on RPMI-8226 leukemia it was more than 24.4 µM; in the assay on 786-0 renal, 53 µM. The compound also showed a TGI in the assay with UO-31 renal of 45.3 µM.

For the compound `C=C1C(=O)OCC2C(C(=O)O)=CC3C(C)C(C)=CC123` (stereo not drawn), the TGI in the assay on NCI-H522 lung turned out to be 8.18 µM; with SK-MEL-5 melanoma, 27.3 µM; in the assay with HT29 colon, 44.4 µM; in the assay with RPMI-8226 leukemia, 26.8 µM; in the assay with UO-31 renal, 39.5 µM.

Take `NC(N)=NNC(=O)CCCCCCCC(=O)NN=C(N)N`: the TGI in the assay with SK-MEL-5 melanoma, with TK-10 renal, with HT29 colon, in the assay on 786-0 renal and in the assay on UO-31 renal was more than 100 µM in each case.

Regarding `NCCNc1cccc2ccccc12`, the TGI in the assay on NCI-H522 lung, in the assay on TK-10 renal, in the assay with HT29 colon, in the assay on RPMI-8226 leukemia, in the assay on 786-0 renal and with UO-31 renal was more than 100 µM in each case.

Consider `Cc1ccc(C(C2C(=O)N(C)C(=O)N(C)C2=O)C(F)(F)C(=O)N(C)C)cc1` (stereo not drawn), for which the TGI with PC-3 prostate, in the assay with SK-MEL-5 melanoma, with TK-10 renal, in the assay on MDA-MB-231 breast, in the assay with DU-145 prostate and with RPMI-8226 leukemia was more than 100 µM throughout. In addition, the TGI in the assay with 786-0 renal and with UO-31 renal was more than 100 µM each time.

For `CCN(c1ccc(Br)cc1)c1c(Br)c(=O)nc2ccccn12`, the TGI in the assay on NCI-H522 lung, with SK-MEL-5 melanoma, with TK-10 renal, with HT29 colon, in the assay on RPMI-8226 leukemia and in the assay with 786-0 renal was more than 100 µM in each case. The TGI in the assay with UO-31 renal is more than 100 µM.

In the case of `Cc1cccc(NC(=O)C(=O)C(C(=O)c2ccccc2F)C2OC(=O)c3ccccc32)c1Cl` (stereo not drawn), the TGI is 79.9 µM in the assay with NCI-H522 lung; more than 100 µM in the assay on SK-MEL-5 melanoma; more than 100 µM in the assay with TK-10 renal; more than 100 µM in the assay with HT29 colon; more than 100 µM in the assay with RPMI-8226 leukemia; more than 100 µM in the assay on UO-31 renal.

For `CC(C)(C)C(=O)ON1N=NC2C3CC(OCc4ccccc4)(OCc4ccccc4)C(O3)C21` (stereo not drawn), the TGI in the assay with SK-MEL-5 melanoma is 31.9 µM; in the assay on HT29 colon, 47.9 µM; in the assay on RPMI-8226 leukemia, 49.4 µM; with 786-0 renal, 36.4 µM; with UO-31 renal, 49.7 µM.

Consider `COc1cccc(Cc2c3cc(OC)ccc3cc[n+]2C)c1`, for which the TGI in the assay with NCI-H522 lung was 92.3 µM; in the assay with SK-MEL-5 melanoma, 65.4 µM; with TK-10 renal, more than 100 µM; in the assay on HT29 colon, more than 100 µM; with RPMI-8226 leukemia, more than 100 µM; with 786-0 renal, more than 100 µM. Moreover, the TGI in the assay on UO-31 renal was more than 100 µM.

As to `O=[Se](=O)c1ccccc1.O=[Se](=O)c1ccccc1.[Cu]`, the GI50 is 17.3 µM in the assay with NCI-H522 lung; 19 µM in the assay with SK-MEL-5 melanoma; 17.2 µM in the assay on HT29 colon; 17 µM in the assay with RPMI-8226 leukemia; 18 µM in the assay on UO-31 renal. The TGI amounted to 31.5 µM with NCI-H522 lung; 34.9 µM with SK-MEL-5 melanoma; 39.2 µM with HT29 colon; 63.1 µM in the assay on RPMI-8226 leukemia; 32.5 µM in the assay on UO-31 renal.

Turning to `CC(CO)C1C[C@H](O)[C@@]2(C)CC(=O)C=C(CO)[C@@H]2C1` (stereo partly drawn), the TGI in the assay on SK-MEL-5 melanoma, in the assay on TK-10 renal, in the assay with HT29 colon, with MDA-MB-231 breast, in the assay with DU-145 prostate and in the assay on 786-0 renal was more than 100 µM each time. The same compound showed a TGI with UO-31 renal of more than 100 µM.

Take `CC(=O)O[C@]12CCCC1C1(O)C(O)CCCC12` (stereo partly drawn): the TGI with NCI-H522 lung, in the assay on SK-MEL-5 melanoma, with TK-10 renal, in the assay on HT29 colon, with RPMI-8226 leukemia and in the assay on 786-0 renal was more than 100 µM each time. This compound also returned a TGI with UO-31 renal of more than 100 µM.
